Source: US20250277012A1 (Protagonist Therapeutics, Inc., priority 2021, published 2025)
Read-outs that look alike come from different tables or passages of the source. Starred links: 1 amine or outer side, 2 acyl side, 3 side chain; linkers in the order of their positions; H or OH if unused. Positions of bridges follow the written chain, without caps; N, C: chain ends. Non-standard residues stand in square brackets, D forms with d. Residues, ends and D or L forms follow the SMILES beside them. Groups on a side chain read outwards from the residue. *: point of attachment. X1 = C[N+](C)(CCNC(=O)CCCCCCCCCCCCCCCCC(=O)O)CC(=O)*; X5 = CCCCCCCCCCCCCCCC(=O)NCC[N+](C)(C)CC(=O)*; C18 diacid = O=C(O)CCCCCCCCCCCCCCCCC(=O)*; Dip = N[C@H](C(=O)O)C(c1ccccc1)c1ccccc1; γGlu = O=C(O)[C@H](CCC(=O)[*:2])N[*:1]; Pro(3S-OH) = O=C(O)[C@H]1NCC[C@@H]1O; Pro(3R-OH) = O=C(O)[C@H]1NCC[C@H]1O; Palmitoyl = CCCCCCCCCCCCCCCC(=O)*; NMeT = CN[C@H](C(=O)O)[C@@H](C)O; dNMeF = CN[C@H](Cc1ccccc1)C(=O)O; β3hF = N[C@H](CC(=O)O)Cc1ccccc1; dNMeL = CN[C@H](CC(C)C)C(=O)O; NMeK = CN[C@@H](CCCCN)C(=O)O; Pen = CC(C)(S)[C@H](N)C(=O)O; αMeK = C[C@](N)(CCCCN)C(=O)O; Isovaleryl = CC(C)CC(=O)*; hCys = N[C@@H](CCS)C(=O)O; Dap = NC[C@H](N)C(=O)O; AEEA = NCCOCCOCC(=O)O; Ahx = NCCCCCC(=O)O

Legend:
[1] = molecular target: T1, ferroportin (Homo sapiens, UniProt Q9NP59); experiment: FPN activity assay: ferroportin-GFP internalization/degradation in HEK293 cells; format: cell-based; parameters: expressed in transfected cells; conditions: read-out: FPN IC50
T1 sequence (Q9NP59 1-571): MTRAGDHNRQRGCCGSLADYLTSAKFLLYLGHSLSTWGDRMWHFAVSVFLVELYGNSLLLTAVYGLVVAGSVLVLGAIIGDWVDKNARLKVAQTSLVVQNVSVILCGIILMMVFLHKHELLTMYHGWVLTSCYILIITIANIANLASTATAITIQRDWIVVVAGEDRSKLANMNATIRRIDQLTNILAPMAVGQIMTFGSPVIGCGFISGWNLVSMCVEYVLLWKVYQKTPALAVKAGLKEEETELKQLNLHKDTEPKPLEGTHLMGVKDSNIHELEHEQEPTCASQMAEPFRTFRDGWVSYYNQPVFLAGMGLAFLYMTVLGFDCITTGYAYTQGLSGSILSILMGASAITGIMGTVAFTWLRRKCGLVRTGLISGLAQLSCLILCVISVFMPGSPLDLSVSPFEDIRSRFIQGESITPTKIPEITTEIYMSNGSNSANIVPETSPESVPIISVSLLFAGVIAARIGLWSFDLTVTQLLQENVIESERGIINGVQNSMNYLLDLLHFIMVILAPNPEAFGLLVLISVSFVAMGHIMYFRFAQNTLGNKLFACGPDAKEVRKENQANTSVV
Protocol: Following internalization, the ferroporin protein is degraded.
A retro inverse peptide is a peptide with a reversed sequence in all D amino acids. An example is that Hy-Glu-Thr-His-NH2 becomes Hy-DHis-DThr-DGlu-NH2. The EC50 of these reference compounds for ferroportin internalization/degradation was determined according to the FPN activity assay described above. These peptides served as control standards.

[2] = molecular target: T1, ferroportin; experiment: T47D cell-based ferroportin internalization assay in presence of mouse serum albumin (MSA); parameters: a human breast carcinoma adherent cell line which endogenously expresses ferroportin; host or cells: T47D
Procedure, shortened: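 Peptide potency for inducing ferroportin internalization was measured in T47D cells in the presence of serum albumin. Cells grown in RPMI with fetal bovine serum were seeded in 96-well plates at 80-100 k cells per well in 100 ul and rested overnight. Dilution series of test peptides were preincubated 30 min at room temperature, then added to the cells after the medium was aspirated.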

[3] = ferroportin-GFP HEK293 cells, at least 18 hours
[4] = T47D cells, 0.5% mouse serum albumin, 1 hr incubation
[5] = ferroportin-GFP internalization/degradation, HEK293 cells, Table 6E
[6] = T47D internalization assay in presence of mouse serum albumin (MSA), Table 6E
[7] = Table 6E, T47D internalization assay with MSA

DC50 [1, 3] [µM]	IC50 [2, 4] [µM]	DC50 [1, 5] [µM]	IC50 [2, 6] [µM]	IC50 [2, 7] [µM]	Compound
0.01 to 0.1	0.001 to 0.01	–	–	–	CCCCCCCCCCCCCCCC(=O)NCCCCCC(=O)NCCCC[C@H](NC(=O)C[C@H](Cc1ccccc1)NC(=O)[C@@H](CCCCN)NC(=O)[C@@H](NC(=O)[C@H](C)NC(=O)[C@@H]1CSSC[C@H](NC(=O)[C@H](CCC(=O)O)NC(=O)CC(C)C)C(=O)N[C@@H](Cc2c[nH]cn2)C(=O)N[C@@H](C(c2ccccc2)c2ccccc2)C(=O)N1)[C@@H](C)CC)C(=O)N[C@H](CCCCN)C(=O)N[C@@H](C)C(N)=O [Compd 45] (Isovaleryl-ECH[Dip]CAI[dK][β3hF]K([Ahx-Palmitoyl])[dK]A-NH2; disulfide 2-5)
–	–	0.01 to 0.1	0.01 to 0.1	–	CC(C)CC(=O)N[C@@H](CCC(=O)O)C(=O)N[C@H](C(=O)N[C@@H](Cc1cnc[nH]1)C(=O)N[C@H](C(=O)N1CCC[C@H]1C(=O)N[C@H]1CSSC[C@@H](C(=O)N(C)[C@@H](CCCCNC(=O)COCCOCCNC(=O)COCCOCCNC(=O)[C@H](CN)NC(=O)CCCCCCCCCCCCCCCCC(=O)O)C(=O)N[C@H](CC(=O)N[C@H](CCCCN)C(=O)N(C)[C@H](CC(C)C)C(N)=O)Cc2ccccc2)NC1=O)C(c1ccccc1)c1ccccc1)[C@@H](C)O [compound 249] (Isovaleryl-ETH[Dip]PCC[NMeK]([AEEA-AEEA-Dap-C18 diacid])[β3hF][dK][dNMeL]-NH2; disulfide 6-7)
–	–	0.001 to 0.01	0.01 to 0.1	–	COC(=O)CC[C@H](NC(=O)CC(C)C)C(=O)N[C@H](C(=O)N[C@@H](Cc1c[nH]cn1)C(=O)N[C@H](C(=O)N1CCC[C@H]1C(=O)N[C@H]1CSSC[C@@H](C(=O)N(C)[C@@H](CCCCNC(=O)COCCOCCNC(=O)COCCOCCNC(=O)[C@H](CN)NC(=O)CCCCCCCCCCCCCCCCC(=O)O)C(=O)N[C@H](CC(N)=O)Cc2ccccc2)NC1=O)C(c1ccccc1)c1ccccc1)[C@@H](C)O [compound 256] (Isovaleryl-E(OMe)TH[Dip]PCC[NMeK]([AEEA-AEEA-Dap-C18 diacid])[β3hF]-NH2; disulfide 6-7)
–	–	0.01 to 0.1	0.01 to 0.1	–	CC(C)CC(=O)N[C@@H](CCC(=O)O)C(=O)N[C@H](C(=O)N[C@@H](Cc1c[nH]cn1)C(=O)N[C@H](C(=O)N1CCC[C@H]1C(=O)N[C@H]1CSSC[C@@H](C(=O)N[C@@](C)(CCCCNC(=O)COCCOCCNC(=O)COCCOCCNC(=O)[C@H](CN)NC(=O)CCCCCCCCCCCCCCCCC(=O)O)C(=O)N[C@H](CC(=O)N[C@H](CCCCN)C(N)=O)Cc2ccccc2)NC1=O)C(c1ccccc1)c1ccccc1)[C@@H](C)O [compound 302] (Isovaleryl-ETH[Dip]PCC[αMeK]([AEEA-AEEA-Dap-C18 diacid])[β3hF][dK]-NH2; disulfide 6-7)
–	–	0.01 to 0.1	0.001 to 0.01	–	CC(C)CC(=O)N[C@@H](CCC(=O)O)C(=O)N[C@H](C(=O)N[C@@H](Cc1cnc[nH]1)C(=O)N[C@H](C(=O)N1CCC[C@H]1C(=O)N[C@H]1CSSC[C@@H](C(=O)N(C)[C@@H](CCCCNC(=O)COCCOCCNC(=O)COCCOCCNC(=O)[C@H](CN)NC(=O)CCCCCCCCCCCCCCCCC(=O)O)C(=O)N[C@H](CC(=O)N[C@H](CCCCN)C(=O)N(C)[C@H](Cc2ccccc2)C(N)=O)Cc2ccccc2)NC1=O)C(c1ccccc1)c1ccccc1)[C@@H](C)O [compound 250] (Isovaleryl-ETH[Dip]PCC[NMeK]([AEEA-AEEA-Dap-C18 diacid])[β3hF][dK][dNMeF]-NH2; disulfide 6-7)
> 0.5	> 0.5	–	–	–	CC[C@H](C)[C@@H]1NC(=O)[C@@H](NC(=O)[C@@H]2CCCN2C(=O)[C@H](Cc2ccccc2)NC(=O)[C@H](Cc2c[nH]cn2)NC(=O)[C@@H](NC(=O)[C@H](CCC(=O)O)NC(=O)CC(C)C)[C@@H](C)O)C(C)(C)SSC(C)(C)[C@@H](C(=O)N[C@@H](CCCCN)C(N)=O)NC(=O)CNC(=O)[C@H](CCCCN)NC(=O)[C@H](CO)NC(=O)[C@H](CCCNC(=N)N)NC(=O)[C@@H]2CCCN2C(=O)[C@H](CCC(=O)O)NC(=O)[C@H](Cc2ccccc2)NC(=O)[C@H](CCCCNC(=O)COCCOCCNC(=O)COCCOCCNC(=O)CC[C@H](NC(=O)CCCCCCCCCCCCCCCCC(=O)O)C(=O)O)NC1=O [Compd 18] (Isovaleryl-ETHFP[Pen]IK([AEEA-AEEA-γGlu-C18 diacid])FEPRSKG[Pen]K-NH2; disulfide 6-16)
–	–	0.01 to 0.1	0.01 to 0.1	–	CC(C)CC(=O)N[C@@H](CCC(=O)O)C(=O)N[C@H](C(=O)N[C@@H](Cc1cnc[nH]1)C(=O)N[C@H](C(=O)N1CCC[C@H]1C(=O)N[C@H]1CSSC[C@@H](C(=O)N(C)[C@@H](CCCCNC(=O)COCCOCCNC(=O)COCCOCCNC(=O)C[N+](C)(C)CCNC(=O)CCCCCCCCCCCCCCCCC(=O)O)C(=O)N[C@H](CC(=O)N[C@H](CCCCN)C(N)=O)Cc2ccccc2)NC1=O)C(c1ccccc1)c1ccccc1)[C@@H](C)O [compound 283] (Isovaleryl-ETH[Dip]PCC[NMeK]([AEEA-AEEA-X1])[β3hF][dK]-NH2; disulfide 6-7)
0.001 to 0.01	> 0.5	–	–	–	CCCCCCCCCCCCCCCC(=O)NCCCCCC(=O)NCCCC[C@H](NC(=O)C[C@H](Cc1ccccc1)NC(=O)[C@@H]1CSSC[C@H](NC(=O)CC(C)C)C(=O)N[C@@H]([C@@H](C)O)C(=O)N[C@@H](Cc2c[nH]cn2)C(=O)N[C@@H](C(c2ccccc2)c2ccccc2)C(=O)N2CCC[C@H]2C(=O)N[C@@H](C)C(=O)N[C@@H]([C@@H](C)CC)C(=O)N1)C(=O)N[C@H](CCCCN)C(N)=O [Compd 43] (Isovaleryl-CTH[Dip]PAIC[β3hF]K([Ahx-Palmitoyl])[dK]-NH2; disulfide 1-8)
–	–	0.01 to 0.1	0.01 to 0.1	–	CC(C)CC(=O)N[C@@H](CCC(=O)O)C(=O)N[C@H](C(=O)N[C@@H](Cc1c[nH]cn1)C(=O)N[C@H](C(=O)N1CCC[C@H]1C(=O)N[C@H]1CSSC[C@@H](C(=O)N(C)[C@@H](CCCCNC(=O)COCCOCCNC(=O)COCCOCCNC(=O)[C@H](CN)NC(=O)CCCCCCCCCCCCCCCCC(=O)O)C(N)=O)NC1=O)C(c1ccccc1)c1ccccc1)[C@@H](C)O [compound 294] (Isovaleryl-ETH[Dip]PCC[NMeK]([AEEA-AEEA-Dap-C18 diacid])-NH2; disulfide 6-7)
–	–	0.01 to 0.1	0.01 to 0.1	–	CC(C)CC(=O)N[C@@H](CCC(=O)O)C(=O)N[C@H](C(=O)N[C@@H](Cc1c[nH]cn1)C(=O)N[C@H](C(=O)N1CCC[C@H]1C(=O)N[C@H]1CCSSCC[C@@H](C(=O)N(C)[C@@H](CCCCNC(=O)COCCOCCNC(=O)COCCOCCNC(=O)[C@H](CN)NC(=O)CCCCCCCCCCCCCCCCC(=O)O)C(=O)N[C@H](CC(=O)N[C@H](CCCCN)C(N)=O)Cc2ccccc2)NC1=O)C(c1ccccc1)c1ccccc1)[C@@H](C)O [compound 269] (Isovaleryl-ETH[Dip]P[hCys][hCys][NMeK]([AEEA-AEEA-Dap-C18 diacid])[β3hF][dK]-NH2; disulfide 6-7)
–	–	–	–	0.01 to 0.1	CC(C)CC(=O)N[C@@H](CCC(=O)O)C(=O)N1CC[C@H](O)[C@H]1C(=O)N[C@@H](Cc1c[nH]cn1)C(=O)N[C@H](C(=O)N1CCC[C@H]1C(=O)N[C@H]1CSSC[C@@H](C(=O)N(C)[C@@H](CCCCNC(=O)CCCCCNC(=O)C[N+](C)(C)CCNC(=O)CCCCCCCCCCCCCCCCC(=O)O)C(=O)N[C@H](C(=O)N[C@H](CCCCN)C(N)=O)C(c2ccccc2)c2ccccc2)NC1=O)C(c1ccccc1)c1ccccc1 [compound 192] (Isovaleryl-E[Pro(3S-OH)]H[Dip]PCC[NMeK]([Ahx-X1])[Dip][dK]-NH2; disulfide 6-7)
–	–	–	–	0.01 to 0.1	CC(C)CC(=O)N[C@@H](CCC(=O)O)C(=O)N1CC[C@@H](O)[C@H]1C(=O)N[C@@H](Cc1c[nH]cn1)C(=O)N[C@H](C(=O)N1CCC[C@H]1C(=O)N[C@H]1CSSC[C@@H](C(=O)N(C)[C@@H](CCCCNC(=O)CCCCCNC(=O)C[N+](C)(C)CCNC(=O)CCCCCCCCCCCCCCCCC(=O)O)C(=O)N[C@H](C(=O)N(C)[C@@H](CCCCN)C(N)=O)C(c2ccccc2)c2ccccc2)NC1=O)C(c1ccccc1)c1ccccc1 [compound 156] (Isovaleryl-E[Pro(3R-OH)]H[Dip]PCC[NMeK]([Ahx-X1])[Dip][NMeK]-NH2; disulfide 6-7)
–	–	–	–	0.001 to 0.01	CCCCCCCCCCCCCCCC(=O)NCC[N+](C)(C)CC(=O)NCCCC[C@@H](C(=O)N[C@H](C(N)=O)C(c1ccccc1)c1ccccc1)N(C)C(=O)[C@@H]1CSSC[C@H](NC(=O)[C@@H]2CCCN2C(=O)[C@@H](NC(=O)[C@H](Cc2cnc[nH]2)NC(=O)[C@H]([C@@H](C)O)N(C)C(=O)[C@H](CCC(=O)O)NC(=O)CC(C)C)C(c2ccccc2)c2ccccc2)C(=O)N1 [compound 169] (Isovaleryl-E[NMeT]H[Dip]PCC[NMeK](X5)[Dip]-NH2; disulfide 6-7)
